Measured values published in US20030013660A1, “Dioxolane analogs for improved inter-cellular delivery” (Shire BioChem Inc., priority 2000, published 2003).

How the values were obtained:
[1] = system: CEM/dCK-; test: MTT or WST-1 assay at 72 hr (24 hr drug exposure, wash, 48 hr); format: cell-based
Description: Exposition of 24hr to drug, washed, and incubated for another 48hr (total of 72hr assay)

[2] = system: CEM/dCK-; test: 3H-TdR incorporation at 72 hr (24 hr drug exposure, wash, 48 hr); format: cell-based; conditions: for IC50: Homo sapiens, CCRF-CEM, read-out: IC50 in μM (3H-TdR incorporation at 72 hr) CEM/dCK- 24 h, CCRF-CEM deoxycytidine kinase-deficient, 24 h drug exposure, 72 hr assay; for Factor* (Resistance Factor = Ratio of dCK- on Wild-type CCRF-CEM): ratio of IC50 CEM/dCK- to IC50 CCRF-CEM
Description: (§1) Exposition of 24 hr to drug, wash, incubated for another 48 hr (total of 72 hr assay)
(§2) (3H-Thymidine Incorporation Assay)

[3] = system: H-460; test: as above; format: cell-based, Human; conditions: Homo sapiens, NCI-H460, read-out: IC50 in μM (3H-TdR incorporation at 72 hr) H-460 24 h, H-460 Human Lung Carcinoma, 72 hr assay
Description: as §1, §2

[4] = system: MCF-7; test: as above; format: cell-based, Human; conditions: Homo sapiens, MCF7, read-out: IC50 in μM (3H-TdR incorporation at 72 hr) MCF-7 24 h, MCF-7 Human Breast Carcinoma, 72 hr assay
Description: as §1, §2

[5] = system: SF-268; test: as above; format: cell-based, Human; conditions: Homo sapiens, SF-268, read-out: IC50 in μM (3H-TdR incorporation at 72 hr) SF-268 24 h, SF-268 Human Central Nervous System Tumor; 24 h drug exposure, 72 hr assay
Description: as §1, §2

[6] = system: CCRF-CEM; test: as above; format: cell-based; conditions: Homo sapiens, CCRF-CEM, read-out: IC50 in μM (3H-TdR incorporation at 72 hr) CCRF-CEM 24 h, CCRF-CEM T-cell Leukemia, 72 hr assay
Description: as §1, §2

[7] = read-out: IC50 CEM/dCK- 24 h, MMT or WST-1 at 72 hr, 24 h exposure, single experiment
[8] = read-out: IC50 CEM/dCK- 24 h; MMT or WST-1 at 72 hr, 24 h exposure, single experiment

SMILES	IC50 [2]	IC50 [3]	IC50 [4]	IC50 [5]	IC50 [6]	IC50 [1, 7]	IC50 [1, 8]	Factor* (Resistance Factor = Ratio of dCK- on Wild-type CCRF-CEM) [2]
CC(C)(C)c1cc(C(=O)OC[C@H]2OC[C@@H](n3ccc(N)nc3=O)O2)cc(C(C)(C)C)c1 [Compound 186, 3,5-DI-TERT-BUTYL- BENZOIC ACID 4-(4- AMINO-2-OXO-2H- PYRIMIDIN-1-YL)- [1,3]DIOXOLAN-2- YLMETHYL ESTER]	> 100 µM	–	–	–	–	26000 nM	14000 nM	–
CC(C)N(/C=N/c1ccn([C@@H]2CO[C@H](CO)O2)c(=O)n1)C(C)C [Compound 230, N′-[1-(2-HYDROXYMETHYL- [1,3]DIOXOLAN-4-YL)-2- OXO-1,2-DIHYDRO- PYRIMIDIN-4-YL]-N,N- DIISOPROPYL-FORMAMIDINE]	> 100 µM	1.5 µM	3.8 µM	9.5 µM	1 µM	–	–	>100
Cc1ccc(C)c(OCCCC(C)(C)C(=O)Nc2ccn([C@@H]3CO[C@H](CO)O3)c(=O)n2)c1 [Compound 234, 5-(2,5-DIMETHYL- PHENOXY)-2,2-DIMETHYL- PENTANOIC ACID [1-(2- HYDROXYMETHYL- [1,3]DIOXOLAN-4-YL)-2- OXO-1,2-DIHYDRO- PYRIMIDIN-4-YL]-AMIDE]	> 100 µM	1.5 µM	0.1 µM	0.1 µM	0.95 µM	–	–	>105
O=C(Nc1ccn([C@@H]2CO[C@H](CO)O2)c(=O)n1)C(c1ccccc1)c1ccccc1 [Compound 241, N-[1-(2-HYDROXYMETHYL- [1,3]DIOXOLAN-4-YL)-2- OXO-1,2-DIHYDRO- PYRIMIDIN-4-YL]-2,2- DIPHENYL-ACETAMIDE]	≥ 100 µM	0.047 µM	0.17 µM	14 µM	1.4 µM	–	–	≧74
CC(C)Cc1ccc([C@H](C)C(=O)Nc2ccn([C@@H]3CO[C@H](CO)O3)c(=O)n2)cc1 [Compound 242, N-[1-(2-HYDROXYMETHYL- [1,3]DIOXOLAN-4-YL)-2- OXO-1,2-DIHYDRO- PYRIMIDIN-4-YL]-2-(4- ISOBUTYL-PHENYL)- PROPIONAMIDE]	93 µM	0.25 µM	0.001 µM	1.1 µM	0.23 µM	–	–	404
CC(C)Cc1ccc([C@H](C)C(=O)OC[C@H]2OC[C@@H](n3ccc(N)nc3=O)O2)cc1 [Compound 243, 2-(4-ISOBUTYL-PHENYL)- PROPIONIC ACID 4-(4- AMINO-2-OXO-2H- PYRIMIDIN-1-YL)- [1,3]DIOXOLAN-2-YL METHYL ESTER]	72 µM	0.0011 µM	0.0005 µM	0.32 µM	0.027 µM	–	–	2,667
Nc1ccn([C@@H]2CO[C@H](COC(=O)N(c3ccccc3)c3ccccc3)O2)c(=O)n1 [Compound 246, DIPHENYL-CARBAMIC ACID 4-(4-AMINO-2-OXO-2H- PYRIMIDIN-1-YL)- [1,3]DIOXOLAN-2-YL METHYL ESTER]	> 100 µM	47 µM	1.4 µM	28 µM	25 µM	–	–	>4
CC(C)C(C(=O)Nc1ccn([C@@H]2CO[C@H](CO)O2)c(=O)n1)c1ccccc1 (some centres unmarked) [Compound 249, #N!-[1-(2- HYDROXYMETHYL- [1,3]DIOXOLAN-4-YL)-2- OXO-1,2-DIHYDRO- PYRIMIDIN-4-YL]-3- METHYL-2-PHENYL- BUTYRAMIDE]	> 100 µM	8.6 µM	0.78 µM	8.4 µM	3.9 µM	–	–	>25
CCCCCc1ccc(OC(=O)Nc2ccn([C@@H]3CO[C@H](CO)O3)c(=O)n2)cc1 [Compound 250, [1-(2-HYDROXYMETHYL- [1,3]DIOXOLAN-4-YL)-2- OXO-1,2-DIHYDRO- […]-4-YL]- CARBAMIC ACID 4-PENTYL- PHENYL ESTER]	31 µM	0.17 µM	0.16 µM	0.17 µM	0.063 µM	–	–	492
CCC(CCCCCCc1ccccc1)C(=O)OC[C@H]1OC[C@@H](n2ccc(N)nc2=O)O1 (some centres unmarked) [Compound 266, 2-ETHYL-8-PHENYL- OCTANOIC ACID 4-(4- AMINO-2-OXO-2H- PYRIMIDIN-1-YL)- [1,3]DIOXOLAN-2- YLMETHYL ESTER]	–	–	–	–	–	21000 nM	26000 nM	–

Further compounds by falling IC50 [2], results first:

IC50 [2]	IC50 [3]	IC50 [4]	IC50 [5]	IC50 [6]	SMILES	IC50 [1, 7]	IC50 [1, 8]	Factor* (Resistance Factor = Ratio of dCK- on Wild-type CCRF-CEM) [2]
61 µM	1.6 µM	1.1 µM	0.38 µM	1.2 µM	C[C@H]1CC[C@@](C)(C(=O)Nc2ccn([C@@H]3CO[C@H](CO)O3)c(=O)n2)C1(C)C [Compound 235, 1,2,2,3-TETRAMETHYL- CYCLOPENTANECARBOXYLIC ACID [1-(2- HYDROXYMETHYL- [1,3]DIOXOLAN-4-YL)-2- OXO-1,2-DIHYDRO- PYRIMIDIN-4-YL]-AMIDE]	–	–	51
59 µM	0.00045 µM	≤ 0.0001 µM	0.025 µM	0.0025 µM	CC(C)(CCCCCCc1ccccc1)C(=O)OC[C@H]1OC[C@@H](n2ccc(N)nc2=O)O1 [Compound 238, 2,2-DIMETHYL-8-PHENYL- OCTANOIC ACID 4-(4- AMINO-2-OXO-2H- PYRIMIDIN-1-YL)- [1,3]DIOXOLAN-2-YL METHYL ESTER]	–	–	23,600
31 µM	0.17 µM	0.18 µM	0.29 µM	0.098 µM	CC(C)C[C@H](NC(=O)OCc1ccccc1)C(=O)Nc1ccn([C@@H]2CO[C@H](CO)O2)c(=O)n1 [Compound 254, {1-[1-(2-HYDROXYMETHYL- [1,3]DIOXOLAN-4-YL)-2- OXO-1,2-DIHYDRO- PYRIMIDIN-4-YL CARBAMOYL]-3-METHYL- BUTYL}-CARBAMIC ACID BENZYL ESTER]	–	–	316
20 µM	4.6 µM	5.1 µM	14 µM	5.3 µM	CC(C)(C)C(CCCCCCc1ccccc1)C(=O)OC[C@H]1OC[C@@H](n2ccc(N)nc2=O)O1 (some centres unmarked) [Compound 256, 2-tert-Butyl-8-phenyl-octanoic acid 4-(4-amino-2-oxo-2H-pyrimidin-1-yl)-[1,3]dioxolan-2-yl methyl ester]	–	–	4
2.5 µM	≤ 0.0001 µM	≤ 0.0001 µM	≤ 0.0001 µM	≤ 0.0001 µM	CCCCC[C@H]1CC[C@H](C(=O)OC[C@H]2OC[C@@H](n3ccc(N)nc3=O)O2)CC1 [Compound 240, 4-PENTYL- CYCLOHEXANECARBOXYLIC ACID 4-(4-AMINO-2-OXO- 2H-PYRIMIDIN-1-YL)- [1,3]DIOXOLAN-2-YL METHYL ESTER]	–	–	≧25000
0.68 µM	< 0.0001 µM	< 0.0001 µM	< 0.0001 µM	< 0.0001 µM	CC(CCCCCCc1ccccc1)C(=O)OC[C@H]1OC[C@@H](n2ccc(N)nc2=O)O1 (some centres unmarked) [Compound 245, 2-METHYL-8-PHENYL- OCTANOIC ACID 4-(4- AMINO-2-OXO-2H- PYRIMIDIN-1-YL)- [1,3]DIOXOLAN-2-YL METHYL ESTER]	–	–	>6800
